Drawing on patent US5532400A, “2,6-di-alkyl-4-silyl-phenols as antiatheroscelerotic agents” (Merrell Pharmaceuticals Inc., priority 1994, dated 1996), this text covers IC50 for two compounds.

pIC50: −log10 of the molar value.

The subject of the assay is human LDL. Briefly: Inhibition of LDL lipid peroxidation (cupric sulfate-induced, thiobarbituric acid assay). The assay is classed as biochemical. Particulars: 250 μg human LDL, test compound 30 min at 42° C., cupric sulfate 12.5 μM, 37° C., 2.5 hours, read-out: ID50 (concentration of test compound required to inhibit 50% of LDL lipid peroxidation). The procedure: The degree of inhibition of LDL lipid peroxidation was determined by the method of Yagi et al. [Vitamins 39, 105 (1968)].
A 0.5 mL solution containing 250 micrograms (μg) of human LDL was incubated with the test compound, in amounts varying from 0 to 30 μg, for 30 minutes at 42° C. To this mixture was added 1 mL of a cupric sulfate solution (final concentration 12.5 μM) and the mixture was incubated at 37° C. for 2.5 hours. The amount of peroxidation of LDL lipid was determined by the thiobarbituric acid assay. The concentration of test compound required to inhibit 50% of LDL lipid peroxidation (ID50) was determined.

As to `CC(C)(C)c1cc(SC[Si](C)(C)C)cc(C(C)(C)C)c1O` [Compound A], the pIC50 is 5.55.

As for `CC(C)(C)c1cc(SC[Si](C)(C)c2ccccc2)cc(C(C)(C)C)c1O` [Compound B], the pIC50 is 5.52.
